≈ marks a conversion by molar mass, not a printed value.
Assays:
[1] = 3/10/20 mpk i.g., livers collected 1 h, 2 h, 4 h post-dose
Method: (§1) C57BL/6J wild-type female mice (6 weeks old) were randomly grouped. After administration at different doses, whole blood and liver tissues of the mice were separately collected at 1 h, 2 h, and 4 h for detection of a plurality of parameters to evaluate the effect of the drugs on the liver.
(§2) Liver tissues and blood were collected at 1 h, 2 h, and 4 h after single dosing.
(§3) The supernatant was collected and stored (-20 °C); • (3) IFN-α, IP-10, IL-6, and TNF-α were detected using an ELISA kit. • (C) Remaining liver tissue-HE staining and pathological evaluation. • (D) 1/2 blood (whole blood)-liver function parameter detection: AST (aspartate aminotransferase), ALT (alanine aminotransferase/glutamate pyruvate transaminase), ALP (alkaline phosphatase), ALB (albumin), and GGT (γ-glutamyl transferase). • (E) 1/2 blood-serum preparation-reserve for ELISA.

[2] = Solubility in phosphate buffer at pH 7.4
[3] = Liver tissue distribution after single intragastric administration; details: 10 mg/kg single intragastric, ICR mice; for AUC(0-t) at 24 h: mouse, in vivo, po, 10 mg/kg, area under curve at 24 h post-dose
Method: The specific regimen was as follows: Before administration, the state of the formulation for administration was inspected, and the homogeneity of the formulation was ensured by vortexing, stirring, or shaking. The theoretical dose for each mouse was calculated according to the following formula. The actual dose for each ICR mouse and the collection time for plasma and tissue samples were required to be recorded in detail in corresponding tables. Theoretical administration volume (mL) = ((Dose(mg⋅kg^−1))/(Concentration of test solution (mg⋅((mL))^−1))) × Animal body weight (kg) [formula]
Plasma sample collection: At each designated time point, about 100 µL of blood was collected from the orbit, and the collected whole blood was placed in an EDTA-K2 anticoagulation tube, inverted several times to mix thoroughly, stored on wet ice, and centrifuged (at 1500 g to 1600 g) for 10 min within 30 min to separate the plasma. The resulting plasma sample was stored at -40 °C to -20 °C for biological sample analysis.
The specific procedures for liver tissue collection were as follows: Liver tissues were collected immediately after whole blood collection. The liver tissues were collected, washed with ice-cold normal saline, dehydrated, weighed, and homogenized in 20% methanol-water at a ratio of 1:5 (w/v). The collection time of tissues and the weight of homogenized tissues were required to be recorded in detail in corresponding tables.
The plasma and various tissue homogenates were stored in a refrigerator at -40 °C to -20 °C for sample analysis. After the experiment was completed, the mice were euthanized by carbon dioxide asphyxiation or cervical dislocation. After the analysis was completed, the samples were returned to the biological sample room, and transferred to an environment at -40 °C to -20 °C for storage according to SOP-SM-001.
The corresponding pharmacokinetic parameters of plasma and liver tissues were calculated using a non-compartmental model in Phoenix WinNonlin 8.0 or later versions, and the area under curve AUC0-t (AUC0-t, the area under the concentration-time curve at 24 h post-dose) was calculated. The liver/plasma drug distribution ratio (RL/P) was then calculated.

[4] = test system: Hep3B-luc; assay: Hep3B-luc liver orthotopic xenograft mouse model; details: Hep3B-luc liver orthotopic tumor model, 3 mg/kg
[5] = physchem; details: phosphate buffer, pH 7.4, aqueous buffer
[6] = test system: hepatitis B virus (HBV); assay: Anti-hepatitis B virus activity in HBV-infected primary human hepatocytes; assay type: cell-based, HBV type B; details: HBV-infected PHHs
Method: The culture supernatant from one donor (donor 1) was selected to stimulate HBV-infected primary hepatocytes (PHHs), and interferon α and nucleoside analog entecavir (ETV) were selected as positive controls. The experimental procedures were as follows (FIG. 14a), and the detailed procedures were as follows: On day -1, cryopreserved PHHs were thawed and adjusted to a density of 6 × 10^5 cells/mL, and the PHHs were seeded into a 48-well plate at 0.22 mL/well.
On day 0, the PHHs were infected with HBV type B at 600 GE/cells.
On day 1, the culture medium was replaced with a fresh one, and reference compounds ETV and Peg-IFN-α2a (Pegasys-Roche) were added to the cells to treat the cells. The reference compounds ETV and Peg-IFN-α2a for the PHHs were each prepared at one concentration, with three replicate wells.
The PBMC supernatants were each prepared at 4 test concentrations, diluted at a ratio of 1:4, and then added to the cells. Three replicate wells were made for each test condition. The culture medium was replaced with a fresh culture medium containing the PBMC supernatants and the reference compounds on days 5, 7, 9, and 11. On day 13, the cell supernatants were collected and the cell viability was detected using CCK-8.
The content of HBV DNA in the supernatants was determined by qPCR according to the kit instructions. HBsAg and HBeAg levels in the supernatants were determined by ELISA.

[7] = test system: ISG15, ISG56, Mx1, and Oaslb; assay: Liver safety: qPCR of interferon-related genes in liver tissue; assay type: in vivo, C57BL/6J wild-type female mice
Method: as §1, §2, §3

[8] = test system: Peripheral blood mononuclear cells (hPBMCs); assay: Cytokine secretion after stimulation of PBMCs; details: hPBMCs from 3 donors, 24 h of stimulation
[9] = test system: IFN-α, IP-10, IL-6, and TNF-α; assay: Liver safety: cytokine ELISA in liver tissue; assay type: in vivo, C57BL/6J wild-type female mice
Method: as §1, §2, §3

In the case of `COCCNc1nc(N)nc2ccc(Cc3ccc(CN4CCOCC4)cc3)nc12` [Compound II], the “Liver HE staining” value [1] is reported as “did not cause apparent pathological damage to the liver tissues”, the “solubility improvement compared with N01(D18)” value [2] is reported as “about 10 fold” and the “AUC0-t ratio (liver/plasma)” value [3] is reported as 114. For the same compound, the “liver/plasma drug distribution ratio” value [3] was 114 fold, the “Drug concentration ratio (liver/plasma)” value ([3]; 0.25h) was 610 and the “Mean drug concentration (liver)” value ([3]; 0.25h) was 30980 ng/g. The “Mean drug concentration (plasma)” value ([3]; 0.25h) was 50.8 ng/mL, the “Drug concentration ratio (liver/plasma)” value ([3]; 1 h) was 134 and the “Mean drug concentration (liver)” value ([3]; 1 h) was 8780 ng/g. For the same compound, the “Mean drug concentration (plasma)” value ([3]; 1 h) was 65.6 ng/mL, the “Drug concentration ratio (liver/plasma)” value ([3]; 4h) was 71.3 and the “Mean drug concentration (liver)” value ([3]; 4h) was 1990 ng/g. For the same compound, the “Mean drug concentration (plasma)” value ([3]; 4h) was 27.9 ng/mL, the “Drug concentration ratio (liver/plasma)” value ([3]; 24h) was 79.4 and the “Mean drug concentration (liver)” value ([3]; 24h) was 327 ng/g. The “Mean drug concentration (plasma)” value ([3]; 24h) was 4.12 ng/mL, the AUC(0-t) at 24 h ([3]; AUC0-t (liver)) was 58100 ng·h/mL and the AUC(0-t) at 24 h ([3]; AUC0-t (plasma)) was 510 ng·h/mL. The “maximum body weight loss” value [4] was 5.4%, the TGI ([4]; IG, QW × 3, p < 0.05) was 61.6% and the solubility [5] was 1010 µM (≈ 413 µg/mL). For the same compound, the “activity for inhibiting HBV DNA compared with Peg-IFN-α2a (100 IU/mL)” value ([6]; PBMC supernatant (donor 1)) was “comparable”, the “activity for reducing hepatitis B surface antigen compared with Peg-IFN-α2a (100 IU/mL)” value ([6]; PBMC supernatant (donor 1)) was “slightly stronger” and the “anti-HBV activity compared with GS-9688” value ([6]; PBMC supernatant (donor 1)) was “significantly stronger”. For the same compound, the “levels of surface antigens HBeAg and HBsAg” value ([6]; agonist-treated PBMC supernatant (donor 1) or reference compound, supernatant ELISA day 13) was “significantly reduced”, the “level of HBV DNA” value ([6]; agonist-treated PBMC supernatant (donor 1) or reference compound, supernatant qPCR day 13) was “significantly reduced” and the “relative expression levels of ISG15, ISG56, Mx1, and oas1b” value ([7]; 3/10/20 mpk i.g. single dose, 1 h to 4 h) was “increased over time, and peaked at 4 h”. For the same compound, the “mRNA expression level of interferon-related genes” value ([7]; dose of 3 mpk (pharmacodynamic dose)) was “significantly induced an increase”, the IFN-α stimulating activity [8] was “strong” and the “IFN-α, IFN-γ, and IL-1240 secretion” value ([8]; 4 concentrations, compared with GS-9688) was “significantly stronger activity and magnitude”. The “expression levels of IL-6, TNF-α, IFN-α, and IP-10” value ([9]; 3/10/20 mpk groups i.g. single dose, 1 h, 2 h, 4 h) was “all peaked at 2 h, and decreased at 4 h” and the “IP-10 (CXCL-10) secretion” value ([9]; i.g. single dose) was “significantly induced”.
